Assay results from publication PMC7830897 (Viruses, 2021).
“And” between values parts separate entries of the source, which are not always exact repeats. Equal entries are not always repeated. “Also recorded” adds a separate entry of the source. Where two headings read alike, the source gives them in different places.

Key:
human cardiomyocytes = assay: Human cardiomyocyte function (video-based contractility analysis); type: cell-based; settings: 50 µM
HBV [1] = assay: Antiviral efficacy in nude mice bearing HBV transfected AD38 xenografts; type: in vivo; settings: for difference in T/V ratios (HBV titers) versus no-drug / placebo control group: day 45
[2] = 2% FBS (used to measure potency in vitro), 10 µM
HBV [3] = test system: HBV; set-up: method as in earlier work; settings: 2% FBS, cited from earlier work
[4] = Single-dose plasma pharmacokinetics in male cynomolgus monkeys; settings: for AUCtotal: mean n = 3, extrapolated; for t1/2: mean n = 3, terminal
[5] = humanized mice, 60 mg/kg per day PO for 10 weeks; cited from earlier work
[6] = cynomolgus monkey plasma (1 donor), 10 µM
[7] = Centrifree ultrafiltration device
[8] = set-up: method as in earlier work; settings: CD-1 mice, cited from earlier work
[9] = cited from earlier work
[10] = human, 10 µM
[11] = 1 mg/kg IV infusion, mean n = 3
[12] = eight of the ten mice, GLP-26 55 mg/kg 3 times per week via feeding tube, to day 45

With `COc1nc(N)nc2c1ncn2[C@@H]1O[C@H](COP(=O)(N[C@@H](C)C(=O)OCC(C)(C)C)Oc2cccc3ccccc23)[C@@H](O)[C@@]1(C)O` (stereo partly drawn) [BMS-986094] the “resumption of cardiomyocyte beating” value (human cardiomyocytes) was “resumed after 8 h with an unstable rhythm” and the “time until cardiomyocyte beating stopped” value (human cardiomyocytes) was at most 2 h.
In the case of `C=C1[C@H](CO)[C@@H](O)C[C@@H]1n1cnc2c(=O)[nH]c(N)nc21` [ETV, entecavir, reference compound], the “difference in T/V ratios (HBV titers) versus no-drug / placebo control group” value (HBV [1]) is reported as 3 log10.
For `C#CCNC(=O)C(=O)c1c(C)c(C(=O)Nc2ccc(F)c(F)c2)n(C)c1C` [GLP-26], the “percent bound in 2% FBS” value [2] is listed as 17.9%, the “in vitro EC50 versus HBV” value (HBV [3]; converted from nM) is listed as ~ 1.1 ng/mL and the “in vitro EC90 versus HBV” value (HBV [3]; converted from nM) is listed as ~ 11 ng/mL. The EC50 (HBV [3]; read-out: in vitro EC50 versus HBV) was 3 nM, the EC90 (HBV [3]; read-out: in vitro EC90 versus HBV) was 30 nM and the AUMC [4, 11] was 1058 ng·mL^−1·h^2. The CL [4, 11] was 1.106 L·h/kg, the Cmax [4, 11] was 2513 ng/mL and the MRT [4, 11] was 1.2 h. For the same compound, the Tmax [4, 11] was 0.40 h, the Vss [4, 11] was 1.065 Lkg^−1 and the AUCtotal ([4]; 1 mg/kg IV infusion) was 986.6 ± 316.5 ng·h/mL and 986.6 ng·h/mL. For the same compound, the t1/2 ([4]; 1 mg/kg IV infusion) was 0.77 h, the “Cmax relative to in vitro EC50 versus HBV” value ([4]; 5 mg/kg PO) was ~ 30 times and the AUMC ([4]; 5 mg/kg PO, mean n = 3) was 7435 ng·mL^−1·h^2. It also gave a Cmax ([4]; 5 mg/kg PO, mean n = 3) of 380.7 ng/mL, an MRT ([4]; 5 mg/kg PO, mean n = 3) of 4.19 h and a Tmax ([4]; 5 mg/kg PO, mean n = 3) of 0.67 h. The AUCtotal ([4]; 5 mg/kg PO) was 1660 ng·h/mL and 1660 ± 530 ng·h/mL, the t1/2 ([4]; 5 mg/kg PO) was 2.4 h and 2.44 h and the “signs of toxicity in monkeys” value ([4]; single IV (1 mg/kg) or PO (5 mg/kg) doses) was “appeared healthy prior to dosing and throughout the duration of the study; also recorded: No signs of toxicity were observed”. The tolerability [5] was “safely administered”, the “percent bound in plasma” value [6] was 86.7% and the non-specific adsorption [7] was “approximately 2.6%”. For the same compound, the “difference in T/V ratios (HBV titers) versus no-drug / placebo control group” value (HBV [1]) was 2.5 log10, the “mean rebound in T/V” value (HBV [1]; [12]) was 13.8 fold and the “mean rebound in T/V (log10)” value (HBV [1]; [12]) was 1.14 log10. For the same compound, the “terminal t1/2” value ([8]; IV 15 mg/kg) was 1.6 h, the PO bioavailability ([8]; PO 30 mg/kg, IV 15 mg/kg) was 61% and the “terminal t1/2” value ([8]; PO 30 mg/kg) was over 6 h.
For `Nc1nc(=O)n([C@@H]2CS[C@H](CO)O2)cc1F` [emtricitabine], the “percent bound (reported)” value [9] is given as under 4% and the “percent bound in plasma” value [10] is given as 0.8%.
For `Cc1cccc(C)c1OCC(=O)N[C@@H](Cc1ccccc1)[C@@H](O)C[C@H](Cc1ccccc1)NC(=O)[C@H](C(C)C)N1CCCNC1=O` [lopinavir], the “percent bound in plasma” value [10] was 97.9%.
